Measured values published in patent publication US10441593B2, “Treatment of pain associated with dislocation of endometrium” (PREGLEM S.A., priority 2010, dated 2019).

Test system: patients with uterine fibroids and adenomyosis or endometriosis
Assay: Clinical study: 5 mg or 10 mg ulipristal on pain in patients with adenomyosis or endometriosis (Example 2)
Assay type: in vivo, human
Parameters: key to PBAC score at the end of treatment (week 13): PBAC score; normal <75, >100 menorrhagia; higher is worse; key to A(SF-MPQ) Score: SF-MPQ Part A pain score; lower score is better; key to B(VAS) Score / B(VAS) CFB: SF-MPQ Part B VAS pain score; lower score is better
Protocol: Different parameters were assessed before treatment (Baseline) and after the end of treatment (13 weeks): • The PBAC score (Pictorial Blood Loss Assessment Chart) gives an estimation of the menstrual blood loss. This score was measured before treatment and continuing up to week 13 of treatment. Normal menstrual bleeding score is <75. Abnormal bleeding (menorrhagia) is characterized by a PBAC score >100. Higher the score, worse is the bleeding. • The Uterine volume was estimated before treatment (Baseline Uterine volume) and the % change in uterine volume was reported at the end of the treatment (week 13). • The SF-M P QPart A (short form of the Mc Gill Pain questionnaire) was used as a measure of the sensory, affective and intensity dimensions of pain. The pain was estimated before treatment and the change was reported at the end of the treatment (week 13). (NOTE: The lowest is the score, the better it is). • The SF-MPQ Part B (short form of the Mc Gill Pain questionnaire) wherein the pain is assessed with a visual analogue scale (VAS) before treatment and the change was reported at the end of the treatment (week 13). (NOTE: The lowest is the score, the better it is). • Discomfort questionnaire (disease specific quality of life questionnaire) estimating the quality of life before treatment and the change was reported at the end of the treatment (week 13). (NOTE: The lowest is the score, the better it is). • The level of Hb (Hemoglobin) was measured before treatment and at the end of the treatment. (NOTE: the higher it is, the better it is.) 3. Results
A double-blinded, randomized, study evaluating the effect of long term oral administration of 5 mg or 10 mg ulipristal in patients with heavy menstrual bleeding and pain.
The control group consisted of patients treated with GnRH agonist.
These patients included women 36 years of age or older with evidence of uterine fibroids and adenomyosis or endometriosis diagnosed by ultrasound.
Patient 210/5252 (candidate having adenomyosis) received a daily dose of 5 mg ulipristal (Esmya®) for 13 weeks and was followed up to week 38. A myomectomy by laparotomy was conducted after Week 13 visit.
Patient 281/5214 (candidate having endometriosis) received a daily dose of 5 mg ulipristal (Esmya®) for 13 weeks and was followed up to week 38.
Patient 210/5095 (candidate having adenomyosis) received a daily dose of 10 mg ulipristal (Esmya®) for 13 weeks and was followed up to week 38. A hysterectomy by laparoscopy was conducted after Week 13 visit.
Patient 210/5308 (candidate having endometriosis) received a daily dose of 10 mg ulipristal (Esmya®) for 13 weeks and was followed up to week 38. A myomectomy by hysteroscopy was conducted after Week 13 visit.
A myomectomy by laparoscopy and hysteroscopy was conducted between Week 26 & 38 visits.
Patient 250/5090 (candidate having endometrioma) received a daily dose of 10 mg ulipristal (Esmya®) for 13 weeks and was followed up to week 38.

[1] = 5 mg/day 13 weeks, patient 210/5252, adenomyosis, Week 5
[2] = 5 mg/day 13 weeks, patient 210/5252, adenomyosis, Week 13
[3] = 5 mg/day 13 weeks, patient 210/5252, adenomyosis, Week 26 follow-up, myomectomy by laparotomy after Week 13
[4] = 5 mg/day 13 weeks, patient 210/5252, adenomyosis, Week 38 follow-up, myomectomy by laparotomy after Week 13
[5] = 5 mg/day 13 weeks, patient 210/5252, adenomyosis, week 9
[6] = 5 mg/day 13 weeks, patient 281/5214, endometriosis, Week 5
[7] = 5 mg/day 13 weeks, patient 281/5214, endometriosis, Week 13
[8] = 5 mg/day 13 weeks, patient 281/5214, endometriosis, Week 17 follow-up, no surgery
[9] = 5 mg/day 13 weeks, patient 281/5214, endometriosis, Week 26 follow-up, no surgery
[10] = 5 mg/day 13 weeks, patient 281/5214, endometriosis, Week 38 follow-up, no surgery
[11] = 5 mg/day 13 weeks, patient 281/5214, endometriosis, week 9
[12] = 10 mg/day 13 weeks, patient 210/5095, adenomyosis, Week 5
[13] = 10 mg/day 13 weeks, patient 210/5095, adenomyosis, Week 13
[14] = 10 mg/day 13 weeks, patient 210/5095, adenomyosis, Week 17 follow-up, hysterectomy by laparoscopy after Week 13
[15] = 10 mg/day 13 weeks, patient 210/5095, adenomyosis, Week 26 follow-up, hysterectomy by laparoscopy after Week 13
[16] = 10 mg/day 13 weeks, patient 210/5095, adenomyosis, Week 38 follow-up, hysterectomy by laparoscopy after Week 13
[17] = 10 mg/day 13 weeks, patient 210/5095, adenomyosis, week 9
[18] = patient 210/5095, 10 mg, adenomyosis and uterine fibroids

For `CC(=O)O[C@]1(C(C)=O)CC[C@H]2[C@@H]3CCC4=CC(=O)CCC4=C3[C@@H](c3ccc(N(C)C)cc3)C[C@@]21C` [Ulipristal, 17α-acetoxy-11β-[4-N,N-dimethylamino-phenyl)-19-norpregna-4,9-diene-3,20-dione], which “A(SF-MPQ) CFB” value [1] is on record?
Its value is −2.

And the “A(SF-MPQ) Score” value [1]?
The value was 14.

And the “B(VAS) CFB” value [1]?
Its value is 21.

And the “B(VAS) Score” value [1]?
Its value is 64.

What about the “PBAC CFB” value [1] of the same molecule?
Its value is 150.

And the “PBAC Score” value [1]?
The value was 375.

And the “% Change in Uterine Volume” value [2]?
Its value is 6.6%.

What about the “A(SF-MPQ) CFB” value [2] of the same molecule?
The value was −3.

What about the “A(SF-MPQ) Score” value [2] of the same molecule?
Its value is 9.

And the “B(VAS) CFB” value [2]?
The value was −6.

What about the “B(VAS) Score” value [2] of the same molecule?
Its value is 37.

What about the “PBAC CFB” value [2] of the same molecule?
The value was −101.

What about the “PBAC Score” value [2] of the same molecule?
Its value is 124.

And the “Uterine Volume” value [2]?
The value was 251.7 cm3.

And the “A(SF-MPQ) CFB” value [3]?
The value was −4.

And the “A(SF-MPQ) Score” value [3]?
The value was 8.

And the “B(VAS) CFB” value [3]?
The value was 24.

And the “B(VAS) Score” value [3]?
The value was 67.

And the “PBAC CFB” value [3]?
The value was 530.

And the “PBAC Score” value [3]?
Its value is 755.

And the “A(SF-MPQ) CFB” value [4]?
Its value is −3.

And the “A(SF-MPQ) Score” value [4]?
Its value is 9.

And the “B(VAS) CFB” value [4]?
Its value is 27.

What about the “B(VAS) Score” value [4] of the same molecule?
Its value is 70.

And the “PBAC CFB” value [4]?
The value was 46.

What about the “PBAC Score” value [4] of the same molecule?
The value was 271.

And the “A(SF-MPQ) CFB” value [5]?
The value was −1.

And the “A(SF-MPQ) Score” value [5]?
Its value is 11.

What about the “B(VAS) CFB” value [5] of the same molecule?
The value was 14.

What about the “B(VAS) Score” value [5] of the same molecule?
Its value is 57.

And the “PBAC CFB” value [5]?
The value was 58.

And the “PBAC Score” value [5]?
The value was 283.

What about the “A(SF-MPQ) CFB” value [6] of the same molecule?
Its value is −3.

And the “A(SF-MPQ) Score” value [6]?
The value was 1.

What about the “B(VAS) CFB” value [6] of the same molecule?
Its value is −17.

And the “B(VAS) Score” value [6]?
Its value is 3.

And the “PBAC CFB” value [6]?
Its value is −174.

What about the “PBAC Score” value [6] of the same molecule?
The value was 46.

And the “% Change in Uterine Volume” value [7]?
The value was 21.3%.

What about the “A(SF-MPQ) CFB” value [7] of the same molecule?
Its value is −4.

And the “A(SF-MPQ) Score” value [7]?
Its value is 0.

What about the “B(VAS) CFB” value [7] of the same molecule?
Its value is −20.

What about the “B(VAS) Score” value [7] of the same molecule?
Its value is 0.

And the “PBAC CFB” value [7]?
The value was −220.

And the “PBAC Score” value [7]?
The value was 0.

And the “Uterine Volume” value [7]?
The value was 159.1 cm3.

What about the “% Change in Uterine Volume” value [8] of the same molecule?
The value was 12.6%.

And the “Uterine Volume” value [8]?
Its value is 147.7 cm3.

And the “% Change in Uterine Volume” value [9]?
The value was −21.2%.

And the “B(VAS) CFB” value [9]?
The value was 53.

And the “B(VAS) Score” value [9]?
The value was 73.

What about the “PBAC CFB” value [9] of the same molecule?
Its value is −168.

And the “PBAC Score” value [9]?
The value was 52.

What about the “Uterine Volume” value [9] of the same molecule?
The value was 102.2 cm3.

And the “% Change in Uterine Volume” value [10]?
The value was −24.6%.

And the “A(SF-MPQ) CFB” value [10]?
The value was −4.

And the “A(SF-MPQ) Score” value [10]?
The value was 0.

What about the “B(VAS) CFB” value [10] of the same molecule?
The value was −20.

And the “B(VAS) Score” value [10]?
Its value is 0.

What about the “PBAC CFB” value [10] of the same molecule?
Its value is 351.

And the “PBAC Score” value [10]?
The value was 571.

And the “Uterine Volume” value [10]?
Its value is 98.9 cm3.

What about the “A(SF-MPQ) CFB” value [11] of the same molecule?
The value was −4.

And the “A(SF-MPQ) Score” value [11]?
The value was 0.

And the “B(VAS) CFB” value [11]?
Its value is −20.

What about the “B(VAS) Score” value [11] of the same molecule?
The value was 0.

What about the “PBAC CFB” value [11] of the same molecule?
The value was −220.

What about the “PBAC Score” value [11] of the same molecule?
The value was 0.

What about the “A(SF-MPQ) CFB” value [12] of the same molecule?
Its value is 14.

What about the “A(SF-MPQ) Score” value [12] of the same molecule?
Its value is 0.

And the “B(VAS) CFB” value [12]?
The value was −88.

And the “B(VAS) Score” value [12]?
The value was 0.

What about the “PBAC CFB” value [12] of the same molecule?
Its value is −532.

And the “PBAC Score” value [12]?
Its value is 328.

And the “% Change in Uterine Volume” value [13]?
Its value is −33.8%.

What about the “A(SF-MPQ) CFB” value [13] of the same molecule?
The value was −14.

And the “A(SF-MPQ) Score” value [13]?
Its value is 0.

And the “B(VAS) CFB” value [13]?
The value was −88.

What about the “B(VAS) Score” value [13] of the same molecule?
The value was 0.

And the “PBAC CFB” value [13]?
The value was −860.

And the “PBAC Score” value [13]?
The value was 0.

What about the “Uterine Volume” value [13] of the same molecule?
The value was 284.7 cm3.

And the “A(SF-MPQ) CFB” value [14]?
Its value is −14.

And the “A(SF-MPQ) Score” value [14]?
The value was 0.

What about the “A(SF-MPQ) CFB” value [15] of the same molecule?
The value was −14.

And the “A(SF-MPQ) Score” value [15]?
The value was 0.

What about the “B(VAS) CFB” value [15] of the same molecule?
The value was −88.

And the “B(VAS) Score” value [15]?
Its value is 0.

What about the “PBAC Score” value [15] of the same molecule?
Its value is 0.

What about the “A(SF-MPQ) CFB” value [16] of the same molecule?
Its value is −14.

And the “A(SF-MPQ) Score” value [16]?
The value was 0.

What about the “B(VAS) CFB” value [16] of the same molecule?
The value was −88.

And the “B(VAS) Score” value [16]?
The value was 0.

What about the “A(SF-MPQ) CFB” value [17] of the same molecule?
The value was 14.

And the “A(SF-MPQ) Score” value [17]?
The value was 0.

What about the “B(VAS) CFB” value [17] of the same molecule?
Its value is −88.

What about the “B(VAS) Score” value [17] of the same molecule?
The value was 0.

What about the “PBAC CFB” value [17] of the same molecule?
Its value is −860.

And the “PBAC Score” value [17]?
Its value is 0.

And the “uterine volume at week 13 compared to baseline” value (3 of 4 patients (210/5095, 210/5308, 250/5090), 10 mg)?
Its value is “decrease in uterine volume”.

What about the “bleeding starting from week 9” value [18] of the same molecule?
Its value is “did not bleed anymore”.

What about the “pain starting from 5th week” value [18] of the same molecule?
Its value is “no pain anymore”.

What about the “PBAC value at week 13” value (patient 210/5308, 10 mg/day 13 weeks, endometriosis) of the same molecule?
Its value is 55.

What about the “pain at week 5, 9, 13 compared to baseline” value (patients 281/5214, 210/5095, 210/5308, 250/5090, 5 mg or 10 mg) of the same molecule?
The value was “improvement in pain”.

What about the “PBAC score at the end of treatment (week 13)” value (patients 281/5214, 210/5095, 250/5090, 5 mg or 10 mg) of the same molecule?
The value was 0.
